# Experimental data taken from patent US12723096B2, “Regimens and methods of treating multiple sclerosis using ofatumumab” (Novartis AG, priority 2016, dated 2026).
# How the values were obtained:
# relapsing MS patients = settings: Phase 2; cited from earlier work
# patients with RRMS = settings: iv 100, 300, 700 mg; each dose level, both treatment periods; cited from earlier work
# [1] = oncology studies; Arzerra US prescribing information 2016; cited from earlier work
# circulating B-cell = settings: iv 100, 300, 700 mg; each dose level; cited from earlier work
# [2] = Phase I/II study of single low-dose SC ofatumumab in rheumatoid arthritis: safety and tolerability; type: in vivo, human; settings: RA patients; single doses up to 60 mg, without CS premedication
# Method: (§1) Ofatumumab targets a novel epitope on the CD20 molecule distinct from rituximab (RTX), a chimeric anti-CD20 MAb. RTX studies have utilized high intravenous (IV) doses (two 1000 mg doses 14 days apart) leading to very rapid B cell lysis resulting in infusion reactions despite the use of IV corticosteroid (CS) premedication. The first study involving ofatumumab was a phase I/II study to investigate the use of a low dose subcutaneous (SC) formulation of ofatumumab in rheumatoid arthritis (RA), administered without CS, potentially providing more controlled B cell depletion than that seen in the RTX studies. The primary objective was to investigate the safety and tolerability of a single SC dose of ofatumumab in rheumatoid arthritis (RA) patients on background methotrexate (MTX). Secondary objectives included investigating the minimum dose to achieve target peripheral B-cell depletion, the pharmacodynamic dose-response curve and B-cell repletion profile. […] Single doses up to 60 mg were tolerated and may provide a method of achieving B-cell depletion without additional CS premedication. This study established that the duration of peripheral B cell depletion increases with dose of ofatumumab (ofatumumab), an anti-CD20 antibody.
# CD19+ B cells = experiment: Study OMS112831/MIRROR: CD19 B-cell counts; type: in vivo, human
# Method: (§2) In this study, called MIRROR (MRI study In RRMS: evaluating ofatumumab Regimen), patients received ofatumumab 3 mg, 30 mg, or 60 mg every 12 weeks (q12w), or ofatumumab 60 mg every 4 weeks (q4w). To evaluate whether tolerability to the higher ofatumumab doses (30 mg and 60 mg) could be improved by the administration of an initial, lower, conditioning dose of ofatumumab (theoretically leading to the gradual lysis of B cells and potentially reducing cytokine release reactions), patients in the 30 mg q12w, 60 mg q12w and 60 mg q4w dose groups were randomized (1:1) to receive either placebo or a conditioning dose of ofatumumab 3 mg at week 0.
# [3] = in vivo
# Method: as §2
# [4] = tested on: relapsing-remitting multiple sclerosis (RRMS); experiment: Study OMS112831/MIRROR, repeat-dose SC ofatumumab in RRMS: brain MRI lesions and relapses; type: in vivo, human; settings: for reduction of mean cumulative number of new gadolinium-enhancing lesions vs placebo: p<0.001
# Description: The primary endpoint was the cumulative number of new gadolinium-enhancing lesions during weeks 0-12 on brain magnetic resonance imaging (MRI). Other endpoints included • (i) the cumulative number of new Gd-enhancing lesions at other time points; • (ii) (ii) the total volume at weeks 12 and 24 of a) new Gd-enhancing lesions, b) new/newly enlarged T2 lesions, and c) T1 hypointense lesions; • (iii) the proportion of patients free from relapses; • (iv) Expanded Disability Status Scale (EDSS) scores; • (v) Multiple Sclerosis Functional Composite (MSFC) and their component scores; • (vi) Modified Fatigue Impact Scale (MFIS); and • (vii) Evaluation of the use of the initial conditioning ofatumumab dose.
# peripheral B-cell = experiment: Phase I/II study of single low-dose SC ofatumumab in rheumatoid arthritis: peripheral B-cell depletion; type: in vivo, human; settings: RA patients on stable MTX; single SC doses of 30, 60 or 100 mg
# Method: as §1
# patients with RMS = settings: 2 Phase 3 trials; over 2 years; cited from earlier work
substance,measurement,setting,value
rituximab,MRI-measured inflammatory activity,relapsing MS patients,marked reductions
ofatumumab,reduction in MRI lesion activity versus placebo,patients with RRMS,up to 96%
same,incidence of anti-drug antibodies (ADA) against ofatumumab,[1],< 1 % of patients
same,circulating B-cell counts,circulating B-cell,profound reduction
same,tolerability of single SC dose,[2],tolerated
same,depletion of CD19 B-cells,"CD19+ B cells; 3, 30, 60 mg q12w, 60 mg q4w SC",dose-dependently
same,B-cell repopulation once dosing ceased,"CD19+ B cells; all treatments, over 60 weeks of follow up, compared to high-dose i.v. anti-CD20 antibodies",relatively rapid B-cell repopulation
same,B-cell repletion during the inter-dosing interval,CD19+ B cells; monthly dosing (60 mg q4 weeks),no signs of B-cell repletion
same,adverse events versus lower dose regimens of 3 or 30 mg q12 weeks,[3],more adverse events
same,injection-related reactions (most commonly reported AE),[3],52%
same,injection-related reactions mild/moderate in severity,[3],97 % of the events
same,opportunistic infections,[3],no cases
same,overall safety and tolerability,[3],safe and well tolerated
same,MRI effect,[4]; 3 mg every 12 weeks,clear MRI effect
same,MRI efficacy,[4]; 30 mg every 12 weeks,very close to maximal MRI efficacy
same,added efficacy compared with 60 mg every 12 weeks,[4]; 60 mg every 4 weeks,didn't add any efficacy
same,reduction of cumulative new/newly enlarged T2 lesions vs placebo,[4]; weeks 0-12,60-72%
same,patients who experienced a relapse,"[4]; weeks 0-12, 17/164 patients",10%
same,reduction of mean cumulative number of new gadolinium-enhancing lesions vs placebo,[4]; weeks 0-12,65%
same,reduction of mean cumulative number of new gadolinium-enhancing lesions vs placebo,"[4]; weeks 4-12, post hoc analysis, cumulative ofatumumab doses 2::30 mg",≥ 90%
same,peripheral B-cell depletion,peripheral B-cell,profound and sustained peripheral B-cell depletion
ocrelizumab,MRI-measured inflammatory activity,relapsing MS patients,marked reductions
same,relapse rates vs interferon beta 1a,patients with RMS,significantly reduced
